For one series, the target named is pANXA2 (Homo sapiens, UniProt P07355). Description: Microscale thermophoresis (MST), pANXA2 binding. The conditions noted are these: read-out: apparent Kd, pANXA2. From the text:
(§1) Recombinant proteins and antibodies. Recombinant annexin A2, annexin A2 with glutathione-S-transferase (GST) tag, annexin A1, and annexin A3 proteins were purchased from MyBioSource, Inc. (San Diego, CA, USA). Purified ANXA2 protein and purified pANXA2 protein were gifts from Dr. Gabriel Bimme (Beth Israel Deaconess Medical Center, Boston, MA). Rabbit monoclonal anti-annexin A2 antibody (D11G2, #8235), Rabbit monoclonal anti-Rab5 (C8B1, #3547), and rabbit monoclonal anti-Rab7 (D95F2, #936 7) primary antibodies were purchased from Cell Signaling Technology, Inc. (Danvers, MA, USA). Mouse monoclonal anti-β-actin 2A3 (sc-517582), mouse monoclonal anti-pANXA2 antibody (11.Tyr 24) (sc-135752), rabbit polyclonal anti-NOS2 (C-19, sc-649), rabbit polyclonal anti-ARG1 (H-52, sc-20150) antibodies, and protein A/G agarose were purchased from Santa Cruz Biotechnology, Inc. (Dallas, TX, USA). […]
(§2) MST was performed using the Monolith NT.115 (Nanotemper Technologies, Munich, Germany). […] Fluorescence was assessed in MST-2 buffer (50 mM Tris-HCl, pH 7.4; 150 mM NaCl; 10 mM MgCl2). […] The apparent Kd values were calculated from fragment concentration-dependent changes in normalized fluorescence (Fraction Bound) of LS301 after 5 seconds of thermophoresis based on mass action law using the MO Affinity Analysis v2.3 software.

A further series concerns the target T1, ANXA3 (Homo sapiens, UniProt P12429).
T1 construct: purchased MyBioSource, Inc
T1 sequence (P12429 1-323): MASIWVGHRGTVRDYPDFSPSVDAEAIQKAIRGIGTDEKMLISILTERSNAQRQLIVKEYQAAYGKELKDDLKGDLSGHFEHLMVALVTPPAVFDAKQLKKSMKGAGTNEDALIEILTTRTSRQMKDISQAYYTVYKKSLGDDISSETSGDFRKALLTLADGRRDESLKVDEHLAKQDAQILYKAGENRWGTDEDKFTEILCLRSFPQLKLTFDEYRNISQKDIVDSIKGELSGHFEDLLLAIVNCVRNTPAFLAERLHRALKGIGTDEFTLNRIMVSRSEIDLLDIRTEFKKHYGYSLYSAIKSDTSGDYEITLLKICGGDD
The series is described as follows: Microscale thermophoresis (MST), ANXA3 binding. The conditions noted are these: read-out: apparent Kd, ANXA3.
Description: as §1, §2
In general terms: In MST a laser heats a spot of the sample, and binding alters the fluorescence response.

Series [1] deals with breast cancer patient-derived xenograft. Description: In vivo NIR imaging of tumor retention. Also on record: species or system mice. As for the experimental part:
To establish the various tumor models, nude, Balb/c, or C57BL6 mice were injected with 10^5-10^7 tumor cells subcutaneously on unilateral or bilateral flanks. In some cases, spontaneous tumor models were used. Animals injected subcutaneously with saline served as sham tumor controls. For near-infrared imaging, 100 μL volumes of 60 μM LS301 or cypate in PBS were injected intravenously by lateral tail vein, and animals were imaged using a Pearl Small Animal Imager (LI-COR Biotechnology, Lincoln, NE, USA) at the indicated time points. In some experiments, probes were formulated in 1% albumin in PBS. Animals were shaved using commercially available hair removal equipment and products before imaging. For experiments involving further tissue analysis, animals were anesthetized with isoflurane and euthanized by cervical dislocation under anesthesia. Organs were harvested by surgical dissection. For quantitative organ biodistribution studies, individual regions of interest were drawn around each organ of interest, and fluorescence was quantified using the Pearl Small Animal Imager software.

Series [2] in a line: Microscale thermophoresis (MST), calcium binding. The conditions noted are these: read-out: apparent dissociation constant (Kd), calcium. From the text: Microscale thermophoresis (MST) studies biomolecular interactions in an aqueous environment without immobilization. MST exploits the directed movement of molecules along a microscopic temperature gradient. The movement rate and direction of movement depend on the species' size, charge, and solvation shell under study. Changes in this environment can change the thermophoretic movement of the species. MST can distinguish very small changes that occur, for example, when a small fluorescent molecule binds to the surface of a protein.
MST was performed using the Monolith NT.115 (Nanotemper Technologies, Munich, Germany). The appropriate agent(s) and LS301 stock samples were denatured in MST-1 buffer (50 mM Tris-HCl, pH 7.4; 150 mM NaCl; 10 mM MgCl2; 2% DMSO; 0.1% Tween-20; 4% SDS, 4 mM dithiothreitol (DTT)) at 97° C. for 10 min. Fluorescence was assessed in MST-2 buffer (50 mM Tris-HCl, pH 7.4; 150 mM NaCl; 10 mM MgCl2). The protein was prepared in MST-2 buffer, and 20 μL serial dilutions were made with protein concentration ranging from 3.05 pM to 50 nM (pANXA2) or 3.81 pM to 62.5 nM (ANXA2). All samples were loaded into NT.115 standard capillaries. […] The apparent Kd values were calculated from fragment concentration-dependent changes in normalized fluorescence (Fraction Bound) of LS301 after 5 seconds of thermophoresis based on mass action law using the MO Affinity Analysis v2.3 software.

Series [3] deals with cells expressing wild-type ANXA2 or mutant ANXA2 (Y23A). Description: LS301 internalization with insulin in cells expressing wild-type or mutant ANXA2 (Y23A). Type of series: cell-based. On the procedure: For LS301 cell internalization studies involving insulin treatment, cells were grown on Lab-Tek slides overnight. HEK 293T cells (or in some cases 4T1 cells) were maintained in DMEM medium supplemented with 10% fetal bovine serum and 100 units/mL penicillin. After DNA transfection, the HEK 293TAnxa2-WT-GFP and HEK 293TAnxa2-Y23A-GFP cells were maintained in Dulbecco's Modified Eagle's medium (DMEM) medium with 500 μg/mL G418, 10% fetal bovine serum (FBS), and 100 units/mL penicillin. The medium was changed, and cells were grown in serum-starved conditions overnight. Cells were then cultivated with or without 100 nM insulin for 4 h. Then 1 μM of LS301 was added to each sample to incubated for 4 hours or 24 hours at 37° C. Cells were imaged using an FV1000 confocal microscope, and the mean fluorescence intensities (Ex/Em=488/495 nm; Ex/Em=590/617 nm; Ex/Em=780/805-830 nm) were determined using the FV1000 software.

The subject of another series is tumor. The series is described as follows: NIR contrast evaluation of DMSO and ethanol-based formulations. Type of series: in vivo. From the text:
No difference in histology between the various solvents was seen.

Each structure is given as a SMILES string. Positions of bridges follow the written chain, without caps; N, C: chain ends. Non-standard residues stand in square brackets, D forms with d. Residues, ends and D or L forms follow the SMILES beside them. *: point of attachment. X1 = CC1(C)C(/C=C/C=C/C=C/C=C2/N(CCC(=O)*)c3ccc4ccccc4c3C2(C)C)=[N+](CCC(=O)[O-])c2ccc3ccccc3c21

pANXA2, sequence (P07355 2-339 limits assumed): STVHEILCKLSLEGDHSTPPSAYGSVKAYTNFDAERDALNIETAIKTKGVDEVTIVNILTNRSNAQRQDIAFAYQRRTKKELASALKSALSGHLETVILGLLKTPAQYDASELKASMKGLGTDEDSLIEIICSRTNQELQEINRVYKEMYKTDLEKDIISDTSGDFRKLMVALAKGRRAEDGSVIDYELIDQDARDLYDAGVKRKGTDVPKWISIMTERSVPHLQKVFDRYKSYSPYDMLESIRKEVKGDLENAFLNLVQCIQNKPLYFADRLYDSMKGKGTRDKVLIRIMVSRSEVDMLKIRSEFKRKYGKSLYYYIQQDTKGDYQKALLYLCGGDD

Take `CC1(C)C(/C=C/C=C/C=C/C=C2/N(CCC(=O)N[C@@H]3CSSC[C@@H](C(=O)N[C@@H](CCCCN)C(=O)O)NC(=O)[C@@H]4CCCN4C(=O)[C@H](CO)NC(=O)[C@H](CC(=O)O)NC(=O)[C@H](CCCNC(=N)N)NC(=O)CNC3=O)c3ccc4ccccc4c3C2(C)C)=[N+](CCC(=O)[O-])c2ccc3ccccc3c21` [LS301, cypate-cyclic (DCys-Gly-Arg-Asp-Ser-Pro-Cys)-Lys-OH] (X1-[dC]GRDSPCK-OH; disulfide 1-7): the Kd was 0.075 ± 0.002 nM on pANXA2, 6.13 ± 0.28 nM at ANXA3 and 5.67 ± 2.4 nM in series [2]. For the same compound, the “time remaining in the tumor lesion” value in series [1] (breast cancer patient-derived xenograft) was “over 96 hours”. In addition, the tumor coverage result in series [1] (small tumors (<5 mm)) is reported as “about 100%”. For the same compound, the “cellular uptake of LS301, mutant ANXA2 (Y23A) cells” value in series [3] (insulin stimulation) is “minimal LS301 uptake”. Besides, the “cellular uptake of LS301, wild-type ANXA2 cells” value in series [3] (stimulation with insulin) was “increased pANXA2 expression and cellular uptake of LS301”. Further, the “tumor uptake compared to renal or hepatic clearance” value with tumor (20% PEG400 solutions) was “increased tumor uptake”. For the same compound, the NIR contrast entry with tumor (in 20% PEG400) is reported as “significantly increased contrast”. In addition, the clearance mechanism result in the series with tumor (in vivo) was “cleared via renal and hepatic mechanisms”.

For the origin of these results see patent US12121596B2, “Near infrared fluorescent dyes, formulations and related methods” (Washington University, priority 2019, dated 2024).
